From the supplement of paper PMC8967900

What follows are molecules tested on MOLT-14 (assay: selective drug sensitivity score (sDSS, relative to normal bone marrow) (sDSS (score)); higher = more potent and effective on the cell line relative to normal bone marrow cells). Conditions: 72 h.
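Also: ALL cell lines in 384-well plates, five doses spanning 10,000-fold, each plate scaled between vehicle and 100 µmol/L benzalkonium chloride controls, sDSS an adapted area-under-curve metric.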

SMILES	selective drug sensitivity score
O=C1c2c(O)ccc(O)c2C(=O)c2c(NCCNCCO)ccc(NCCNCCO)c21 [Mitoxantrone] (top concentration 1000 nM)	11.6
Nc1ncnc2c1c(COc1cccc(Cl)c1)nn2C1CCOCC1 (top concentration 10000 nM)	-0.64
CC1(C)CNc2cc(NC(=O)c3cccnc3NCc3ccncc3)ccc21 [Motesanib] (top concentration 10000 nM)	-0.22
NC(=O)c1cccc(-c2cccc(OC(=O)NC3CCCCC3)c2)c1 [URB597] (top concentration 1000 nM)	-0.46
CCCN(CCC)C(=O)C1=Cc2ccc(-c3ccc(C(=O)N4CCCC4)cc3)cc2N=C(N)C1 [Motolimod] (top concentration 10000 nM)	-4.28
CCCOc1ccn2c(C(C)=O)cc(-c3ccccc3S(C)(=O)=O)c2c1 [GSK2801] (top concentration 10000 nM)	2.64
Nc1cc(COc2c(Cl)cc(C[C@H](N)C(=O)O)cc2Cl)c2oc(-c3ccccc3)nc2c1 [JPH203] (top concentration 5000 nM)	0
CC/C(=C(\c1ccccc1)c1ccc(OCCN(C)C)cc1)c1ccccc1 [Tamoxifen] (top concentration 10000 nM)	0.62
NC(=S)N/N=C/c1ncccc1N [Triapine] (top concentration 10000 nM)	2.08
C=CCN(/C=C1/C(=O)O[C@H](COC)[C@@]2(C)C1=C(O)C(=O)C1=C2[C@H](OC(C)=O)C[C@]2(C)C(=O)CC[C@@H]12)CC=C [Sonolisib] (top concentration 10000 nM)	-0.76
C[C@H]1CNCCCN1S(=O)(=O)c1cccc2cncc(F)c12 [Ripasudil] (top concentration 10000 nM)	-0.22
C[C@@H](Oc1cc(-c2cnn(C3CCNCC3)c2)cnc1N)c1c(Cl)ccc(F)c1Cl [Crizotinib] (top concentration 1000 nM)	-0.54
CCN(CC)CCCC(C)Nc1ccnc2cc(Cl)ccc12 (configuration not stated) [Chloroquine] (top concentration 100000 nM)	-2.84
N#CC(c1ccnc(OCc2ccc(CN3CCOCC3)cc2)n1)c1nc2ccccc2s1 (configuration not stated) [Bentamapimod] (top concentration 10000 nM)	2.74
COc1cc(N2CCC(N3CCN(C)CC3)CC2)ccc1Nc1ncnc(Nc2ccccc2S(=O)(=O)C(C)C)n1 [ASP3026] (top concentration 10000 nM)	1.36
COCCOc1cnc2ccn([C@H](C)c3nnc4c(F)cc(-c5cnn(C)c5)cn34)c(=O)c2c1 [AMG-337] (top concentration 10000 nM)	-0.06
Cc1cnc(NC(=O)Nc2cc(Br)c(C)cc2OC[C@@H]2CNCCO2)cn1 [Rabusertib] (top concentration 1000 nM)	0.16
CNC(=O)c1ccc(-c2cnc3ncc(Cc4ccc5ncccc5c4)n3n2)cc1F [Capmatinib] (top concentration 1000 nM)	-0.06
COc1cc2/c(=N/c3ccc(Br)cc3F)nc[nH]c2cc1OCC1CCN(C)CC1 [Vandetanib] (top concentration 1000 nM)	0.48

Each molecule was assayed on KOPN-8 in the same assay as above. Conditions: 72 h.

SMILES	selective drug sensitivity score
O=C1c2c(O)ccc(O)c2C(=O)c2c(NCCNCCO)ccc(NCCNCCO)c21 [Mitoxantrone] (top concentration 1000 nM)	16.3
Nc1ncnc2c1c(COc1cccc(Cl)c1)nn2C1CCOCC1 (top concentration 10000 nM)	5.66
CC1(C)CNc2cc(NC(=O)c3cccnc3NCc3ccncc3)ccc21 [Motesanib] (top concentration 10000 nM)	-0.22
NC(=O)c1cccc(-c2cccc(OC(=O)NC3CCCCC3)c2)c1 [URB597] (top concentration 1000 nM)	-0.36
CCCN(CCC)C(=O)C1=Cc2ccc(-c3ccc(C(=O)N4CCCC4)cc3)cc2N=C(N)C1 [Motolimod] (top concentration 10000 nM)	1.52
CCCOc1ccn2c(C(C)=O)cc(-c3ccccc3S(C)(=O)=O)c2c1 [GSK2801] (top concentration 10000 nM)	1.94
Nc1cc(COc2c(Cl)cc(C[C@H](N)C(=O)O)cc2Cl)c2oc(-c3ccccc3)nc2c1 [JPH203] (top concentration 5000 nM)	0
CC/C(=C(\c1ccccc1)c1ccc(OCCN(C)C)cc1)c1ccccc1 [Tamoxifen] (top concentration 10000 nM)	7.92
NC(=S)N/N=C/c1ncccc1N [Triapine] (top concentration 10000 nM)	1.78
C=CCN(/C=C1/C(=O)O[C@H](COC)[C@@]2(C)C1=C(O)C(=O)C1=C2[C@H](OC(C)=O)C[C@]2(C)C(=O)CC[C@@H]12)CC=C [Sonolisib] (top concentration 10000 nM)	-0.16
C[C@H]1CNCCCN1S(=O)(=O)c1cccc2cncc(F)c12 [Ripasudil] (top concentration 10000 nM)	0.88
C[C@@H](Oc1cc(-c2cnn(C3CCNCC3)c2)cnc1N)c1c(Cl)ccc(F)c1Cl [Crizotinib] (top concentration 1000 nM)	-0.54
CCN(CC)CCCC(C)Nc1ccnc2cc(Cl)ccc12 (configuration not stated) [Chloroquine] (top concentration 100000 nM)	-1.14
N#CC(c1ccnc(OCc2ccc(CN3CCOCC3)cc2)n1)c1nc2ccccc2s1 (configuration not stated) [Bentamapimod] (top concentration 10000 nM)	5.64
COc1cc(N2CCC(N3CCN(C)CC3)CC2)ccc1Nc1ncnc(Nc2ccccc2S(=O)(=O)C(C)C)n1 [ASP3026] (top concentration 10000 nM)	-2.64
COCCOc1cnc2ccn([C@H](C)c3nnc4c(F)cc(-c5cnn(C)c5)cn34)c(=O)c2c1 [AMG-337] (top concentration 10000 nM)	1.54
Cc1cnc(NC(=O)Nc2cc(Br)c(C)cc2OC[C@@H]2CNCCO2)cn1 [Rabusertib] (top concentration 1000 nM)	1.66
CNC(=O)c1ccc(-c2cnc3ncc(Cc4ccc5ncccc5c4)n3n2)cc1F [Capmatinib] (top concentration 1000 nM)	-0.06
COc1cc2/c(=N/c3ccc(Br)cc3F)nc[nH]c2cc1OCC1CCN(C)CC1 [Vandetanib] (top concentration 1000 nM)	-0.22

What follows are molecules tested on MN-60 in the same assay as above. Conditions: 72 h.

SMILES	selective drug sensitivity score
O=C1c2c(O)ccc(O)c2C(=O)c2c(NCCNCCO)ccc(NCCNCCO)c21 [Mitoxantrone] (top concentration 1000 nM)	-3.86
Nc1ncnc2c1c(COc1cccc(Cl)c1)nn2C1CCOCC1 (top concentration 10000 nM)	2.96
CC1(C)CNc2cc(NC(=O)c3cccnc3NCc3ccncc3)ccc21 [Motesanib] (top concentration 10000 nM)	-0.22
NC(=O)c1cccc(-c2cccc(OC(=O)NC3CCCCC3)c2)c1 [URB597] (top concentration 1000 nM)	-0.46
CCCN(CCC)C(=O)C1=Cc2ccc(-c3ccc(C(=O)N4CCCC4)cc3)cc2N=C(N)C1 [Motolimod] (top concentration 10000 nM)	-4.48
CCCOc1ccn2c(C(C)=O)cc(-c3ccccc3S(C)(=O)=O)c2c1 [GSK2801] (top concentration 10000 nM)	-0.36
Nc1cc(COc2c(Cl)cc(C[C@H](N)C(=O)O)cc2Cl)c2oc(-c3ccccc3)nc2c1 [JPH203] (top concentration 5000 nM)	0
CC/C(=C(\c1ccccc1)c1ccc(OCCN(C)C)cc1)c1ccccc1 [Tamoxifen] (top concentration 10000 nM)	-1.58
NC(=S)N/N=C/c1ncccc1N [Triapine] (top concentration 10000 nM)	1.48
